Laboratory results as given in article PMC11286754 (Nature Communications, 2024).

What was measured:
[1] = target: T1, SMTA (transaminase from Shimia marina) (Shimia marina, UniProt A0A0P1EM06); assay type: binding
[2] = target: T1, SMTA (transaminase from Shimia marina); assay type: binding; remark: listed apart in the source

T1 sequence (A0A0P1EM06 1-462 limits assumed): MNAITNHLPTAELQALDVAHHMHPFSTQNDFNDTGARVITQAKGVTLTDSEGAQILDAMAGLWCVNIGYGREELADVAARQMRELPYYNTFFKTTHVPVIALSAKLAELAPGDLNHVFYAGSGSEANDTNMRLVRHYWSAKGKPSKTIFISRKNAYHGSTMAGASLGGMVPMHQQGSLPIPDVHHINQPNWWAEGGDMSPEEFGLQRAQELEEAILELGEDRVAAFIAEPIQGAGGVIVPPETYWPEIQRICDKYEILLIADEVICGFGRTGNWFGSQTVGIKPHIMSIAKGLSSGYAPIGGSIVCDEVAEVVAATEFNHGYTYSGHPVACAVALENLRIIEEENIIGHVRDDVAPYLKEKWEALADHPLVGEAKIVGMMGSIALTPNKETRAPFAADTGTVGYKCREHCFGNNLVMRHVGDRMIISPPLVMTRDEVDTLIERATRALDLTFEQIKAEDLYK

Compound	cofactor release assay [1]	X-ray crystal structure, 2.14 A [2]
Cc1ncc(COP(=O)(O)O)c(CN)c1O [PMP]	binding affinity of both PLP and PMP compared to that of wild-type SMTA	–
Cc1ncc(COP(=O)(O)O)c(C=O)c1O [PLP, pyridoxal-5′-phosphate]	–	The apparent electron density indicated a Schiff base between PLP and the catalytic lysine K291
